Values quoted from earlier work in patent publication US5596019A, “N-acyl-cycloalkylamine derivatives as melatonergics” (Bristol-Myers Squibb Company, priority 1995, dated 1997).

How the values were obtained:
[1] = test system: circadian rhythms; settings: exogenous melatonin, rats

oral bioavailability: often low and variable
SMILES: COc1ccc2[nH]cc(CCNC(C)=O)c2c1 [melatonin, N-acetyl-5-methoxytryptamine]
synchronization of circadian rhythms [1]: synchronize circadian rhythms in rats
